Laboratory results reported in patent publication US8232448B2, “Transgenic mouse with a homozygous mutation in the CMAH gene” (The Regents of the University of California, priority 2005, dated 2012).

System: Caco-2 cells
Experiment: Endocytosis inhibition experiments (Neu5Gc incorporation)
Type: cell-based, human
Conditions: Caco-2, 2 h pre-treatment with drug, then 3 mM Neu5Gc
Description: The sonicate was centrifuged at 75×g for 15 min., and the pellet Obtained consisted primarily of nuclei and unbroken cells. […] A portion (20%) of the “total homogenate” fraction was taken for protein quantification and Sia analysis by DMB derivatization and HPLC analysis (as discussed below.) The remainder was centrifuged at 100,000×g for 1 h. The resulting pellet, called the “membrane” fraction, was then resuspended by sonication (15 sec.) in 200 μl of sodium acetate buffer, pH 5.5. The 100,000×g supernatant, called the “soluble” fraction was adjusted to 90% ethanol using absolute ice-cold ethanol, and placed overnight at −20° C. The flocculant precipitate, which represents the “soluble protein” fraction, was washed 3 times with 90%® ice-cold ethanol and then resuspended in 200 μl of water. The supernatant fluid representing the cytosolic low molecular weight (LMW) fraction was dried and brought up in 100 μL with water prior to Sia analysis. All the Sias in these fractions were released with mild acid hydrolysis if necessary and then analyzed by HPLC after DMB derivatization. Protein quantification was performed on the total homogenate, membrane and soluble protein fractions by using the BCA protein assay kit from Pierce (Rockford, Ill.) In some experiments, the resulting data obtained for the Sia bound to the membrane fraction and to the soluble proteins were pooled and presented here as a High Molecular Weight (HMW) fraction. Sialic Acid Release, DMB Derivatization and HPLC Analysis—The bound Sias from the total homogenate, membrane and soluble protein fractions were released using 2M acetic acid hydrolysis, 3 h. at 80° C. The released Sias, or free Sias, contained in the soluble LMW fraction were passed through a Microcon® YM-10 filter (Millipore, Bedford, Mass.) prior to DMB derivatization, which was done according to Hara et al., 1989. […] The eluant was monitored by fluorescence. Quantification of Sias—For all HPLC chromatograms, the quantification of Sias was done by comparison with known quantities of DMB derivatized Neu5Gc and Neu5Ac used as standards and then reported in terms of pmoles of Sia. For total homogenate, membrane and cytosolic protein fractions, this number was expressed per mg of protein. Due to minor sample-to-sample variations in amounts and recoveries, the data in the Figures is presented as percent of Neu5Gc over total Sias, rather than as absolute amounts. Endocytosis Inhibition Experiments—Caco-2 or normal fibroblast cells were split and cultured in alpha-MEM media supplemented respectively with 20% or 15% human serum for 4 days before starting the endocytosis drug inhibition experiments in order to deplete any Neu5Gc derived from FCS. Cells were then pre-treated for 2 h. with the specific inhibitors under the same culture conditions. Fresh media containing the same amount of inhibitor and 3 mM of Neu5Gc was then added to the cells, which were incubated for 16 h or 3 days and finally harvested and fractionated as described above.

| SMILES | Neu5Gc incorporation into membrane-bound glycoconjugates in the presence of inhibitor [%] | incorporation of Neu5Gc in the TH fraction in the presence of inhibitor [%] |
| --- | --- | --- |
| N=C(N)NC(=O)c1nc(Cl)c(N)nc1N [amiloride] | 10 |  |
| CN(C)CCCN1c2ccccc2Sc2ccc(Cl)cc21 [chlorpromazine] | 50 |  |
| O=c1c(-c2ccc(O)cc2)coc2cc(O)cc(O)c12 [genistein] | 34 | 51 |
| C[C@@H]1[C@H](O)[C@@H](C)/C=C/C=C/CC/C=C/C=C/C=C/C=C/C(O[C@H]2O[C@H](C)[C@@H](O)[C@H](N)[C@@H]2O)CC2O[C@](O)(CC(O)C(O)CCC(O)CC(O)CC(O)CC(=O)O[C@H]1C)CC(O)C2C(=O)O (stereo partly drawn) [nystatin] | 44 | ~65 |
